Measurements published in patent publication US20260000692A1, “Substituted N-(Pyridin-2-yl)Acetamide Derivatives as CDK12/13 Inhibitors” (Aurigene Oncology Limited, priority 2022, published 2026).

Molecular target: CDK12 (Homo sapiens, UniProt Q9NYV4)
Assay: Biochemical assay for CDK12 (LANCE TR-FRET, IC50 determination)
Details: for IC50: CDK12, IC50 class, read-out: IC50 μM (in range); for inhibition at 10 µM: compound at 10 μM, read-out: CDK12 % Inhibition @ 10 μM; for inhibition at 2 µM: compound at 2 μM (stated in the cell, not the 10 μM of the column head)
Method in brief: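 30 nM CDK12 phosphorylated 100 nM ULight-4E-BP1 (Thr37/Thr46) peptide at 100 µM ATP, as printed, in HEPES pH 7.5 buffer with MgCl2 and DTT. Compound and enzyme were preincubated 60 min, then reacted 60 min at room temperature before stopping with EDTA and Eu anti-phospho antibody. TR-FRET 665/615 ratio gave sigmoidal IC50 fits.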

CDK12, sequence (Q9NYV4 whole entry): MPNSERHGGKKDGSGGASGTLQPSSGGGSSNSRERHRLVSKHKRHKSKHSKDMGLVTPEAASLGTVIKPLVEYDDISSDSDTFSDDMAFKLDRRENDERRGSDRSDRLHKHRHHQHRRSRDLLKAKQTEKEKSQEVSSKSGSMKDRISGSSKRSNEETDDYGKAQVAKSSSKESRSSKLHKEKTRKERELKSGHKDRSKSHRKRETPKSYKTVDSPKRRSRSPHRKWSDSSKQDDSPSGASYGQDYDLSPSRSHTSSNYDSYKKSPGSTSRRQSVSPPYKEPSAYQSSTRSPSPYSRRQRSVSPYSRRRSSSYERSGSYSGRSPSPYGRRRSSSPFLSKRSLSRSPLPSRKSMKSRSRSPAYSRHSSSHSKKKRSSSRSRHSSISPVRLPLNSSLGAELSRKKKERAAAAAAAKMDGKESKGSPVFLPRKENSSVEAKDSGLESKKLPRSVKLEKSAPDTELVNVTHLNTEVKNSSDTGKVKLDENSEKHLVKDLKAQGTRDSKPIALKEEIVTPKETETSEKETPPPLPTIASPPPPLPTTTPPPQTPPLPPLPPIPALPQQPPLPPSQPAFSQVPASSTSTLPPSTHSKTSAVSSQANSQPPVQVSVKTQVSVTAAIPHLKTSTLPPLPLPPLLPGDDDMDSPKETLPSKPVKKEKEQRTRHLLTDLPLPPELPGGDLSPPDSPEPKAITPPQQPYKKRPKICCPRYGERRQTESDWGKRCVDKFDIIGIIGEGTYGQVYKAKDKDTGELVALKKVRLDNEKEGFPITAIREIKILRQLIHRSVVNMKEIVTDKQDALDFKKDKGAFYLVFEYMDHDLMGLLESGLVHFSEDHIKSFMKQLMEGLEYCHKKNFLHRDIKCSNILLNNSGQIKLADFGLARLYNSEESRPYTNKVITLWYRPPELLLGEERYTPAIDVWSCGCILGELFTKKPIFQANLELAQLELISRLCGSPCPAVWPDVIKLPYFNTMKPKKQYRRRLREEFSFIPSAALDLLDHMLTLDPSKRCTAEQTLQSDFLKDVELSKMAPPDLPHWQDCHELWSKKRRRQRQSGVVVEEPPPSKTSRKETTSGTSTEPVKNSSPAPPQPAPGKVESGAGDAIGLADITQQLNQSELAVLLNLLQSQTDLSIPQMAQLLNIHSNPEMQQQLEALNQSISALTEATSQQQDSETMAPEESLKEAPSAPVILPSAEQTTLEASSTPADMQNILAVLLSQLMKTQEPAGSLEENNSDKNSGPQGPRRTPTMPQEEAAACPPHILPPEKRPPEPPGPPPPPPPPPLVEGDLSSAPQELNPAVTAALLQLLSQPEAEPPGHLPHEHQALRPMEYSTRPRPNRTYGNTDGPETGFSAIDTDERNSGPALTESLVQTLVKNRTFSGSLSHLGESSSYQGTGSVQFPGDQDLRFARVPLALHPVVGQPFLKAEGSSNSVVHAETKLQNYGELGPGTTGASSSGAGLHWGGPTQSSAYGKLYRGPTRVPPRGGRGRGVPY
CDK12, sequence (O75909 whole entry partner): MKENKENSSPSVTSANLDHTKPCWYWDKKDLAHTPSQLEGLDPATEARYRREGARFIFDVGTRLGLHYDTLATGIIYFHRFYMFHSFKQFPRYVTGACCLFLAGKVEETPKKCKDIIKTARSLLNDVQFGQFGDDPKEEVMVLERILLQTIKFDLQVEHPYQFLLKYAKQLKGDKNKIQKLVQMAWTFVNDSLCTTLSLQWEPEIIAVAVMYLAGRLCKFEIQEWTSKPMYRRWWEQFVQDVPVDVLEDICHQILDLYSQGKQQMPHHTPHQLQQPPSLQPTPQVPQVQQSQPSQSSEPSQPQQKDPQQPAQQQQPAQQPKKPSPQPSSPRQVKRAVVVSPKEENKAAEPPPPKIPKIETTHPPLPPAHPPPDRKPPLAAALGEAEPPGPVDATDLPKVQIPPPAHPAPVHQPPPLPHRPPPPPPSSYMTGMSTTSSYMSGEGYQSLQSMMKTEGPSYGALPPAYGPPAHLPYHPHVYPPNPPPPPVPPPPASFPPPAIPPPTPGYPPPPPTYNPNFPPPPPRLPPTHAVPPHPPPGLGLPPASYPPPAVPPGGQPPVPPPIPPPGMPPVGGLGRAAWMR

| SMILES | IC50 [µM] | inhibition at 10 µM [%] | inhibition at 2 µM [%] |
| --- | --- | --- | --- |
| CNC(=O)C(C)Oc1cc(NC(=O)Cc2ccc(-c3ccc(C#N)nc3)nc2)ncc1Cl (stereo not shown) [Compound 143, 2-((5-chloro-2-(2-(6′-cyano-[2,3′-bipyridin]-5-yl)acetamido)pyridin-4-yl)oxy)-N-methylpropanamide] | 0.01 to 0.1 | 92 | – |
| CNC(=O)C(C)Oc1cc(NC(=O)Cc2ccc(-c3ccnc(C#N)c3)nc2)ncc1Cl (stereo not shown) [Compound 144, 2-((5-chloro-2-(2-(2′-cyano-[2,4′-bipyridin]-5-yl)acetamido)pyridin-4-yl)oxy)-N-methylpropanamide] | 0.01 to 0.1 | 92 | – |
| N#Cc1cc(-c2ccc(CC(=O)Nc3cc(O[C@@H]4CCOC4)c(Cl)cn3)cn2)ccn1 [Compound 145, (R)-N-(5-chloro-4-((tetrahydrofuran-3-yl)oxy)pyridin-2-yl)-2-(2′-cyano-[2,4′-bipyridin]-5-yl)acetamide] | 0.01 to 0.1 | 79 | – |
| N#Cc1ccc(-c2ccc(CC(=O)Nc3cc(O[C@@H]4CCOC4)c(Cl)cn3)cn2)cn1 [Compound 146, (R)-N-(5-chloro-4-((tetrahydrofuran-3-yl)oxy)pyridin-2-yl)-2-(6′-cyano-[2,3′-bipyridin]-5-yl)acetamide] | 0.01 to 0.1 | 90 | – |
| CNC(=O)[C@H](C)Oc1cc(NC(=O)Cc2ccc(-c3ccc(C#N)nc3)nc2)ncc1Cl [Compound 147, (S)-2-((5-chloro-2-(2-(6′-cyano-[2,3′-bipyridin]-5-yl)acetamido)pyridin-4-yl)oxy)-N-methylpropanamide] | 0.01 to 0.1 | 89 | – |
| CNC(=O)[C@H](C)Oc1cc(NC(=O)Cc2ccc(-c3ccnc(C#N)c3)nc2)ncc1Cl [Compound 148, (S)-2-((5-chloro-2-(2-(2′-cyano-[2,4′-bipyridin]-5-yl)acetamido)pyridin-4-yl)oxy)-N-methylpropanamide] | 0.01 to 0.1 | 89 | – |
| COc1cc(NC(=O)Cc2ccc(-c3ccc(C#N)c(F)c3)nc2)ncc1Cl [Compound 149, N-(5-chloro-4-methoxypyridin-2-yl)-2-(6-(4-cyano-3-fluorophenyl)pyridin-3-yl)acetamide] | – | 54 | – |
| N#Cc1ncc(-c2ccc(CC(=O)Nc3cc(O[C@@H]4CCOC4)c(Cl)cn3)cn2)cn1 [Compound 150, (R)-N-(5-chloro-4-((tetrahydrofuran-3-yl)oxy)pyridin-2-yl)-2-(6-(2-cyanopyrimidin-5-yl)pyridin-3-yl)acetamide] | 0.01 to 0.1 | 83 | – |
| CNC(=O)[C@H](C)Oc1cc(NC(=O)Cc2ccc(-c3cnc(C#N)nc3)nc2)ncc1Cl [Compound 151, (S)-2-((5-chloro-2-(2-(6-(2-cyanopyrimidin-5-yl)pyridin-3-yl)acetamido)pyridin-4-yl)oxy)-N-methylpropanamide] | 0.01 to 0.1 | 79 | – |
| COc1cc(NC(=O)Cc2ccc(-c3cccc(C#N)n3)cc2)ncc1Cl [Compound 152, N-(5-chloro-4-methoxypyridin-2-yl)-2-(4-(6-cyanopyridin-2-yl)phenyl)acetamide] | > 0.1 | – | – |
| COc1cc(NC(=O)Cc2ccc(-c3cccc(C#N)n3)c(F)c2)ncc1Cl [Compound 153, N-(5-chloro-4-methoxypyridin-2-yl)-2-(4-(6-cyanopyridin-2-yl)-3-fluorophenyl)acetamide] | – | 34 | – |
| N#Cc1cccc(-c2ccc(CC(=O)Nc3cc(O[C@@H]4CCOC4)c(Cl)cn3)cn2)n1 [Compound 154, (R)-N-(5-chloro-4-((tetrahydrofuran-3-yl)oxy)pyridin-2-yl)-2-(6′-cyano-[2,2′-bipyridin]-5-yl)acetamide] | < 0.01 | 77 | – |
| COc1cc(NC(=O)Cc2ccc(-c3cccc(C#N)n3)nc2)ncc1Cl [Compound 156, N-(5-chloro-4-methoxypyridin-2-yl)-2-(6′-cyano-[2,2′-bipyridin]-5-yl)acetamide] | < 0.01 | 80 | – |
| COc1cc(NC(=O)Cc2ccc(-c3cncc(C#N)n3)nc2)ncc1Cl [Compound 157, N-(5-chloro-4-methoxypyridin-2-yl)-2-(6-(6-cyanopyrazin-2-yl)pyridin-3-yl)acetamide] | < 0.01 | 84 | – |
| COc1cc(NC(=O)Cc2ccc(-c3ccc(C)c(C#N)n3)nc2)ncc1Cl [Compound 158, N-(5-chloro-4-methoxypyridin-2-yl)-2-(6′-cyano-5′-methyl-[2,2′-bipyridin]-5-yl)acetamide] | > 0.1 | – | 70 |
| COc1cc(NC(=O)Cc2ccc(-c3cc(C)cc(C#N)n3)nc2)ncc1Cl [Compound 159, N-(5-chloro-4-methoxypyridin-2-yl)-2-(6′-cyano-4′-methyl-[2,2′-bipyridin]-5-yl)acetamide] | 0.01 to 0.1 | – | 90 |

| SMILES | IC50 [µM] | inhibition at 10 µM [%] | inhibition at 2 µM [%] |
| --- | --- | --- | --- |
| COc1cc(NC(=O)Cc2ccc(-c3nc(C#N)ccc3C)nc2)ncc1Cl [Compound 160, N-(5-chloro-4-methoxypyridin-2-yl)-2-(6′-cyano-3′-methyl-[2,2′-bipyridin]-5-yl)acetamide] | > 0.1 | 76 | – |
| COc1cc(C#N)nc(-c2ccc(CC(=O)Nc3cc(OC)c(Cl)cn3)cn2)c1 [Compound 165, N-(5-chloro-4-methoxypyridin-2-yl)-2-(6′-cyano-4′-methoxy-[2,2′-bipyridin]-5-yl)acetamide] | 0.01 to 0.1 | 72 | – |
| COCCOc1cc(C#N)nc(-c2ccc(CC(=O)Nc3cc(OC)c(Cl)cn3)cn2)c1 [Compound 169, N-(5-chloro-4-methoxypyridin-2-yl)-2-(6′-cyano-4′-(2-methoxyethoxy)-[2,2′-bipyridin]-5-yl)acetamide] | 0.01 to 0.1 | 95 | – |
| COc1cc(NC(=O)Cc2ccc(-c3cc(OCCN(C)C)cc(C#N)n3)nc2)ncc1Cl [Compound 170, N-(5-chloro-4-methoxypyridin-2-yl)-2-(6′-cyano-4′-(2-(dimethylamino)ethoxy)-[2,2′-bipyridin]-5-yl)acetamide] | 0.01 to 0.1 | 90 | – |
| COc1cc(NC(=O)Cc2ccc(-c3cc(OC4CCN(C)C4)cc(C#N)n3)nc2)ncc1Cl (stereo not shown) [Compound 171, N-(5-chloro-4-methoxypyridin-2-yl)-2-(6′-cyano-4′-((1-methylpyrrolidin-3-yl)oxy)-[2,2′-bipyridin]-5-yl)acetamide] | < 0.01 | 83 | – |
| COc1cc(NC(=O)Cc2ccc(-c3cc(N(C)CCN(C)C)cc(C#N)n3)nc2)ncc1Cl [Compound 173] | 0.01 to 0.1 | 90 | – |
| COc1cc(NC(=O)Cc2ccc(-c3cc(C(C)(C)O)cc(C#N)n3)nc2)ncc1Cl [Compound 175, N-(5-chloro-4-methoxypyridin-2-yl)-2-(6′-cyano-4′-(2-hydroxypropan-2-yl)-[2,2′-bipyridin]-5-yl)acetamide] | 0.01 to 0.1 | 97 | – |
| COc1cc(NC(=O)Cc2ccc(-c3cc(OC4CCN(C)CC4)cc(C#N)n3)nc2)ncc1Cl [Compound 176, N-(5-chloro-4-methoxypyridin-2-yl)-2-(6′-cyano-4′-((1-methylpiperidin-4-yl)oxy)-[2,2′-bipyridin]-5-yl)acetamide] | 0.01 to 0.1 | 96 | – |
| COc1cc(NC(=O)Cc2ccc(-c3cc(N4CC5CC4CN5C)cc(C#N)n3)nc2)ncc1Cl (stereo not shown) [Compound 181, N-(5-chloro-4-methoxypyridin-2-yl)-2-(6′-cyano-4′-(5-methyl-2,5-diazabicyclo[2.2.1]heptan-2-yl)-[2,2′-bipyridin]-5-yl)acetamide] | 0.01 to 0.1 | 92 | – |
| COc1cc(NC(=O)Cc2ccc(-c3cc(N4CC(O)C4)cc(C#N)n3)nc2)ncc1Cl [Compound 182, N-(5-chloro-4-methoxypyridin-2-yl)-2-(6′-cyano-4′-(3-hydroxyazetidin-1-yl)-[2,2′-bipyridin]-5-yl)acetamide] | > 0.1 | 75 | – |
| COc1cc(NC(=O)Cc2ccc(-c3cc(OC4COC4)cc(C#N)n3)nc2)ncc1Cl [Compound 184, N-(5-chloro-4-methoxypyridin-2-yl)-2-(6′-cyano-4′-(oxetan-3-yloxy)-[2,2′-bipyridin]-5-yl)acetamide] | 0.01 to 0.1 | 80 | – |
| COc1cc(NC(=O)Cc2ccc(-c3ccc(C#N)cc3)nc2)ncc1Cl [Compound 188, N-(5-chloro-4-methoxypyridin-2-yl)-2-(6-(4-cyanophenyl)pyridin-3-yl)acetamide] | > 0.1 | 65 | – |
| COc1cc(NC(=O)Cc2ccc(-c3cccc(C#N)c3)nc2)ncc1Cl [Compound 189, N-(5-chloro-4-methoxypyridin-2-yl)-2-(6-(3-cyanophenyl)pyridin-3-yl)acetamide] | > 0.1 | 82 | – |
| CNC(=O)[C@H](C)Oc1cc(NC(=O)Cc2ccc(-c3cccc(C#N)n3)nc2)ncc1Cl [Compound 190, 2-((5-chloro-2-(2-(6′-cyano-[2,2′-bipyridin]-5-yl)acetamido)pyridin-4-yl)oxy)-N-methylpropanamide] | < 0.01 | 87 | – |
| COc1cc(NC(=O)Cc2ccc(-c3cc(N4CCN(C)CC4)cc(C#N)n3)nc2)ncc1Cl [Compound 191, N-(5-chloro-4-methoxypyridin-2-yl)-2-(6′-cyano-4′-(4-methylpiperazin-1-yl)-[2,2′-bipyridin]-5-yl)acetamide] | 0.01 to 0.1 | 94 | – |
| COc1cc(NC(=O)Cc2ccc(-c3cc(N4CCC(C)(O)CC4)cc(C#N)n3)nc2)ncc1Cl [Compound 192, N-(5-chloro-4-methoxypyridin-2-yl)-2-(6′-cyano-4′-(4-hydroxy-4-methylpiperidin-1-yl)-[2,2′-bipyridin]-5-yl)acetamide] | 0.01 to 0.1 | 88 | – |
